Legend:
[1] = Fluorescence quenching of NBD-labeled cholate oligomers by hydrophilic quencher 11; assay type: binding
Procedure: Fluorescence Quenching of the NBD-Labeled Cholate Oligomers 1-4: Typical procedures for the quenching experiment are as follows. Stock solutions (1.0×10^−3 M) of 1-4 in anhydrous THF were prepared. An aliquot (25.0 μL) of the stock solution was diluted by 2.00 mL of carbon tetrachloride with 5 vol. % DMSO in a quartz cuvet. Aliquots (5.0 μL, 0.8 M) of the quencher (11 or 12) in THF were added with a Hamilton Gastight syringe. After each addition, the sample was vortexed for 1 minute before the fluorescence spectrum was recorded. The excitation wavelength was set at 336 nm and the maximum emission intensity at 527 nm was monitored.

[2] = Solvent denaturation of donor-acceptor labeled cholate oligomers followed by FRET (two-state model); assay type: physicochemical; conditions: for m (in parentheses) / ΔG0 (in parentheses): linear fitting of unfolding free energies (FIG. 12); for m / ΔG0: nonlinear least-squares fitting to two-state model (FIG. 11)
Text: According to the two-state model, at any given concentration of the denaturant (i.e., DMSO), only the folded and unfolded conformations are present and their fractions are represented by fF and fU. Fraction of the unfolded conformation can be calculated by: fU=(IF−I)/(IF−IU) (2) in which I is the observed emission intensity of the acceptor in a given foldamer, IF is the emission intensity of the acceptor in the fully folded conformer, and IU is the emission intensity of the acceptor in the fully unfolded conformer. The equilibrium constant (Keq) and the free energy (ΔG) for the folding reaction can be calculated using ΔG=RT ln Keq=−RT ln(fU/fF)=−RT ln [fU/(1−fU)] (3)
In order to calculate fractions of the unfolded conformations, both IF and IU must be known for different foldamers. The emission intensity of the acceptor in the 1:1 mixture of the monomer A 8 (MA) and monomer D 9(MD) should be good approximations for IU since the emission intensity of the longer foldamers (e.g., pentamer-DA 5 (PDA)) does converge to that of the (MA+MD) mixture upon unfolding. The value of IF, on the other hand, cannot be obtained directly because none of the three foldamers seem to be fully folded under the initial condition of 1% DMSO.
In general, to obtain the values of IF for PDA, hexamer-DA 6 (HXDA), and heptamer-DA 7 (HPDA), it is useful to first make an assumption for fU (e.g., fU=0.1 for the HPDA) in 1% DMSO and use it to calculate the corresponding value of IF, which is designated IF(1). Using IF(1), the first set of fU(1) can be calculated at different DMSO percentages according to equation 2. In the two-state model, the free energies are linearly related to the concentration of denaturant (i.e., DMSO): ΔG=ΔG0−m[DMSO] (4) in which ΔG0 is the free energy for the folding reaction in the absence of denaturant and m measures how sensitive the folding equilibrium is toward DMSO percentage. From equations 2, 3, and 4, the following equation 5 can be obtained, where equation 5 describes the relationship between fU and DMSO percentage: fU=1/{1+1/exp[−(ΔG0−m[DMSO])/RT]} (5)
As a result, the initial values of ΔG0 and m (which are designated as ΔG0(1) and m1) can be obtained by nonlinear least-squares fitting to the first set of fU(1). The resulting ΔG0(1) and m1 are used to calculate the refined value of IF(2) using equations 5 and 2. This process is repeated as long as there is a fairly large difference between the entering IF(n) value and the resulting IF(n+1) value. In general, fitting of the data improves over several rounds of refinement. The refinement is stopped in the end when the values of IF(n) and IF(n+1) are within 1% of each other and are taken as the final value of IF.
In such data processing, it is assumed that IF was independent of DMSO percentage. Such an assumption is expected to underestimate the stability of the cholate foldamers. This is because the emission of MA is shown to be slightly quenched by DMSO—the emission intensity decreases by about 20% over 1-5% DMSO.
FRET Study of the Donor-Acceptor Labeled Cholate Oligomers 5-9 Stock solutions (2.0×10^−4M) of 5-9 in anhydrous THF were prepared. An aliquot (20.0 μL) of the stock solution was diluted by (a) 2.00 mL of ethyl acetate/hexane (v/v=1.05/2) with 1 vol. % DMSO and (b) […] 2.00 mL of ethyl acetate/hexane (v/v=1/1) with 1 vol. % DMSO in a quartz cuvet. Ten aliquots of DMSO (10.0 μL each) were added to the sample. After each addition, the sample was vortexed for 1 minute before the fluorescence spectrum was recorded. The excitation wavelength was set at 287 nm.

[3] = DMSO in ethyl acetate/hexane (1/1)
[4] = DMSO in ethyl acetate/hexane (1/2)

Structure (SMILES)	reduction of fluorescence by quencher 11 ([1]; 5.6 mM of 11 in 2% methanol/CCl4) [fold]	reduction of fluorescence by quencher 11 ([1]; 5.6 mM of 11 in 5% DMSO/CCl4) [fold]	m (in parentheses) [2, 3] [kcal/mol]	ΔG0 (in parentheses) [2, 3] [kcal/mol]	m [2, 3] [kcal/mol]	ΔG0 [2, 3] [kcal/mol]	m (in parentheses) [2, 4] [kcal/mol]	ΔG0 (in parentheses) [2, 4] [kcal/mol]	m [2, 4] [kcal/mol]	ΔG0 [2, 4] [kcal/mol]
COC(=O)CCC(C)C1CCC2C3C(O)CC4CC(NC(=O)CCC(C)C5CCC6C7C(O)CC8CC(NC(=O)CCC(C)C9CCC%10C%11C(O)CC%12CC(NC(=O)CCC(C)C%13CCC%14C%15C(O)CC%16CC(NC(=O)CCC(C)C%17CCC%18C%19C(O)CC%20CC(NC(=O)CCC(C)C%21CCC%22C%23C(O)CC%24CC(NC(=O)CCC(C)C%25CCC%26C%27C(O)CC%28CC(Nc%29ccc([N+](=O)[O-])c%30nonc%29%30)CCC%28(C)C%27CC(O)C%25%26C)CCC%24(C)C%23CC(O)C%21%22C)CCC%20(C)C%19CC(O)C%17%18C)CCC%16(C)C%15CC(O)C%13%14C)CCC%12(C)C%11CC(O)C9%10C)CCC8(C)C7CC(O)C56C)CCC4(C)C3CC(O)C12C (stereo not shown) [Compound 4]	60	< 3								
CC(CCC(=O)Nc1cccc2ccccc12)C1CCC2C3C(O)CC4CC(NC(=O)CCC(C)C5CCC6C7C(O)CC8CC(NC(=O)CCC(C)C9CCC%10C%11C(O)CC%12CC(NC(=O)CCC(C)C%13CCC%14C%15C(O)CC%16CC(NC(=O)CCC(C)C%17CCC%18C%19C(O)CC%20CC(NC(=O)CCC(C)C%21CCC%22C%23C(O)CC%24CC(NS(=O)(=O)c%25cccc%26c(N(C)C)cccc%25%26)CCC%24(C)C%23CC(O)C%21%22C)CCC%20(C)C%19CC(O)C%17%18C)CCC%16(C)C%15CC(O)C%13%14C)CCC%12(C)C%11CC(O)C9%10C)CCC8(C)C7CC(O)C56C)CCC4(C)C3CC(O)C12C (stereo not shown) [Compound 6]			0.89	1.9	0.81 ± 0.06	1.8 ± 0.1	0.52	1.8	0.50 ± 0.02	1.7 ± 0.1

From US7960439B1, “Environmentally sensitive foldable oligomers” (Iowa State University Research Foundation, Inc., priority 2006, dated 2011)
